SMILES strings stand for the structures. pIC50: −log10 of the molar value.

Our source for the IC50 values is US9376418B2, “Substituted pyridine spleen tyrosine kinase (SYK) inhibitors” (Merck Sharp & Dohme Corp., priority 2012, dated 2016).

This experiment concerns the target T1, recombinant human GST-SYK (Homo sapiens, UniProt P43405).
T1 construct: purchased Carna Biosciences 08-176
The experiment can be described thus: Homogeneous Time-Resolved Fluorescence (HTRF) assay for the recombinant human Syk enzyme. The class given is biochemical. The following applies: HTRF assay, recombinant human GST-SYK; IC50 given as class symbols; read-out: rhSYK Activity. In a few lines: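 HTRF read-out: Europium-anti-phosphotyrosine antibody (2 nM) plus SA-APC (70 nM) in EDTA-containing buffer quenched the reaction, and signal was read after 30 minutes. Kinase step used […], 250 nM biotinylated peptide, 25 μM ATP, 5 mM Mg, 45′ at room temperature.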
A general note: Time-resolved FRET reads energy transfer from a long-lived donor to a nearby acceptor.
On to `Cc1ccc(S(=O)(=O)Nc2ccc(-c3cccc(Nc4nccc(C(F)(F)F)n4)c3)nc2)cc1` [Example 2.9, 4-methyl-N-[6-(3-{[4-(trifluoromethyl)pyrimidin-2-yl]amino}phenyl)pyridin-3-yl]benzenesulfonamide], for which the pIC50 is 6.00 to 7.00.

On to `COCC1CCN(c2ccc(-c3cc(C)cc(Nc4nccc(C(F)(F)F)n4)c3)cn2)C1` (stereo not drawn) [Example 7.61, N-(3-{6-[3-(methoxymethyl)pyrrolidin-1-yl]pyridin-3-yl}-5-methylphenyl)-4-(trifluoromethyl)pyrimidin-2-amine], for which the pIC50 was 6.00 to 7.00. As for `Cc1cc(Nc2nccc(C(F)(F)F)n2)cc(-c2ccc(C(=O)NCC3CCC(=O)N3)nc2)c1` (stereo not drawn) [Example 16.30, 5-(3-methyl-5-{[4-(trifluoromethyl)pyrimidin-2-yl]amino}phenyl)-N-[(5-oxopyrrolidin-2-yl)methyl]pyridine-2-carboxamide], the pIC50 is above 7.00. For `OC(c1ccccc1)c1ccc(-c2cccc(Nc3nccc(C(F)(F)F)n3)c2)cn1` (stereo not drawn) [Example 2.42, phenyl[5-(3-{[4-(trifluoromethyl)pyrimidin-2-yl]amino}phenyl)pyridin-2-yl]methanol], the pIC50 is 6.00 to 7.00. The figure for `Cc1cc(Nc2nccc(C(F)(F)F)n2)cc(-c2ccc(C(=O)O)nc2)c1` [Example 2.1, 5-(3-Methyl-5-{[4-(trifluoromethyl)pyrimidin-2-yl]amino}phenyl)pyridine-2-carboxylic acid] is above 7.00; for `Cc1cc(Nc2nccc(C(F)(F)F)n2)cc(-c2ccc(C(=O)NC3CC3)nc2)c1` [Example 2.71, N-cyclopropyl-5-(3-methyl-5-{[4-(trifluoromethyl)pyrimidin-2-yl]amino}phenyl)pyridine-2-carboxamide] it is 6.00 to 7.00; for `Cc1cc(Nc2nccc(C(F)(F)F)n2)cc(-c2ccc(NC(C)(CC(F)(F)F)C(=O)O)nc2)c1` (stereo not drawn) [Example 18.5, 4,4,4-Trifluoro-N-[5-(3-methyl-5-{[4-(trifluoromethyl)pyrimidin-2-yl]amino}phenyl)pyridin-2-yl]isovaline] it is above 7.00. The figure for `Cc1cc(Nc2nccc(C(F)(F)F)n2)cc(-c2ccc(N)c(O)n2)c1` [Example 2.10, 3-amino-6-(3-methyl-5-{[4-(trifluoromethyl)pyrimidin-2-yl]amino}phenyl)pyridin-2-ol] is above 7.00; for `Cc1cc(Nc2nccc(C)n2)cc(-c2ccc(C(C)(O)[C@H]3CC[C@H](C(=O)O)CC3)nc2)c1` (single isomer, unassigned) [Example 9.26, trans-4-[(1R or 1S)-1-hydroxy-1-(5-{3-methyl-5-[(4-methylpyrimidin-2-yl)amino]phenyl}pyridin-2-yl)ethyl]cyclohexanecarboxylic acid] it is above 7.00; for `COc1ccnc(Nc2cc(C)cc(-c3ccc(C(C)(O)[C@H]4CC[C@H](C(=O)O)CC4)nc3)c2)n1` (single isomer, unassigned) [Example 9.28, trans-4-[(1R or 1S)-1-hydroxy-1-(5-{3-[(4-methoxypyrimidin-2-yl)amino]-5-methylphenyl}pyridin-2-yl)ethyl]cyclohexanecarboxylic acid] it is above 7.00. The figure for `Cc1cc(Nc2nccc(C(F)(F)F)n2)cc(-c2cccc(CCC(=O)O)n2)c1` [Example 2.31, 3-[6-(3-methyl-5-{[4-(trifluoromethyl)pyrimidin-2-yl]amino}phenyl)pyridin-2-yl]propanoic acid] is above 7.00; for `Cc1cc(Nc2nccc(C(F)(F)F)n2)cc(-c2ccc(C(=O)N3CCN(C)CC3)nc2)c1` [Example 16.12, N-(3-methyl-5-{6-[(4-methylpiperazin-1-yl)carbonyl]pyridin-3-yl}phenyl)-4-(trifluoromethyl)pyrimidin-2-amine] it is 6.00 to 7.00. With `COc1ccnc(Nc2cc(C)cc(-c3ccnc(CCC(=O)O)c3)c2)n1` [Example 2.131, 3-(4-{3-[(4-methoxypyrimidin-2-yl)amino]-5-methylphenyl}pyridin-2-yl)propanoic acid], the pIC50 is above 7.00. Under `Cc1cc(Nc2nccc(C(F)(F)F)n2)cc(-c2cncc(NCCN3CCOCC3)c2)c1` [Example 15.16] stands above 7.00. Under `Cc1cc(Nc2nccc(C(F)(F)F)n2)cc(-c2ccc(C3(O)CCN(C(N)=O)C3)nc2)c1` (stereo not drawn) [Example 10.4, 3-hydroxy-3-[5-(3-methyl-5-{[4-(trifluoromethyl)pyrimidin-2-yl]amino}phenyl)pyridin-2-yl]pyrrolidine-1-carboxamide] stands above 7.00. The figure for `Cc1cc(Nc2nccc(C(F)(F)F)n2)cc(-c2ccnc(NCc3cn(C)cn3)c2)c1` [Example 15.40, N-[3-methyl-5-(2-{[(1-methyl-1H-imidazol-4-yl)methyl]amino}pyridin-4-yl)phenyl]-4-(trifluoromethyl)pyrimidin-2-amine] is 6.00 to 7.00; for `Cc1cc(Nc2ncc(F)c(C3CC3)n2)cc(-c2ccc(NC3CCNC3=O)nc2)c1` (stereo not drawn) [Example 7.158, 3-[(5-{3-[(4-cyclopropyl-5-fluoropyrimidin-2-yl)amino]-5-methylphenyl}pyridin-2-yl)amino]pyrrolidin-2-one] it is above 7.00; for `Cc1cc(Nc2nccc(C(F)(F)F)n2)cc(-c2ccnc(N3CCC4(CCN(C)C4=O)CC3)c2)c1` [Example 15.31, 2-methyl-8-[4-(3-methyl-5-{[4-(trifluoromethyl)pyrimidin-2-yl]amino}phenyl)pyridin-2-yl]-2,8-diazaspiro[4.5]decan-1-one] it is 6.00 to 7.00.

In the case of `Cc1cc(Nc2nccc(C(F)(F)F)n2)cc(-c2ccc(CN3CCCC3=O)nc2)c1` [Example 14.1, 1-{[5-(3-Methyl-5-{[4-(trifluoromethyl)pyrimidin-2-yl]amino}phenyl)pyridin-2-yl]methyl}pyrrolidin-2-one], the pIC50 is above 7.00. Under `CC(=O)N1CCN(C(=O)c2ccc(-c3cc(C)cc(Nc4nccc(C(F)(F)F)n4)c3)cn2)CC1` [Example 16.24, N-(3-{6-[(4-acetylpiperazin-1-yl)carbonyl]pyridin-3-yl}-5-methylphenyl)-4-(trifluoromethyl)pyrimidin-2-amine] stands above 7.00; under `Cc1cc(Nc2nccc(C(F)(F)F)n2)cc(-c2cc(CCC(=O)O)ccn2)c1` [Example 2.22, 3-[2-(3-methyl-5-{[4-(trifluoromethyl)pyrimidin-2-yl]amino}phenyl)pyridin-4-yl]propanoic acid], above 7.00; under `Cc1cc(Nc2nccc(C(F)(F)F)n2)cc(-c2ccc(N3CCC4(CCN(C)C4=O)CC3)nc2)c1` [Example 7.15, 2-methyl-8-[5-(3-methyl-5-{[4-(trifluoromethyl)pyrimidin-2-yl]amino}phenyl)pyridin-2-yl]-2,8-diazaspiro[4.5]decan-1-one], 6.00 to 7.00. Regarding `CCOC(=O)CCc1ccnc(-c2cc(C)cc(Nc3nccc(C4CC4)n3)c2)c1` [Example 2.39, ethyl 3-(2-{3-[(4-cyclopropylpyrimidin-2-yl)amino]-5-methylphenyl}pyridin-4-yl)propanoate], the pIC50 is 6.00 to 7.00.

For `CCOC(=O)C1CCC(O)(c2ccc(-c3cc(C)cc(Nc4nccc(C(F)(F)F)n4)c3)cn2)CC1(C)C` (stereo not drawn) [Example 9.42, ethyl 4-hydroxy-2,2-dimethyl-4-[5-(3-methyl-5-{[4-(trifluoromethyl)pyrimidin-2-yl]amino}phenyl)pyridin-2-yl]cyclohexanecarboxylate], the pIC50 is 6.00 to 7.00.
